In paper PMC7702303, “Biochemical and transcript level differences between the three human phosphofructokinases show optimisation of each isoform for specific metabolic niches” (Biochemical Journal, 2020):
Where “and” joins values, the source holds several entries; their conditions need not be identical. Identical values can stand only once. Like-named read-outs stand apart in the source and are kept apart here.

Columns and labels:
[1] = target: T1, recombinant human PFK-M (Homo sapiens, UniProt P08237); assay: ALDO-TIM-G3PDH enzyme-linked kinetic assay, PFK-M; assay type: biochemical; design: VmaxATP + modulator / VmaxF6P + modulator / K0.5ATP + modulator / K0.5F6P + modulator: unit not given here
T1 construct: made in house; host or cells: PFK-deficient Saccharomyces cerevisiae
T1 sequence (P08237 1-780): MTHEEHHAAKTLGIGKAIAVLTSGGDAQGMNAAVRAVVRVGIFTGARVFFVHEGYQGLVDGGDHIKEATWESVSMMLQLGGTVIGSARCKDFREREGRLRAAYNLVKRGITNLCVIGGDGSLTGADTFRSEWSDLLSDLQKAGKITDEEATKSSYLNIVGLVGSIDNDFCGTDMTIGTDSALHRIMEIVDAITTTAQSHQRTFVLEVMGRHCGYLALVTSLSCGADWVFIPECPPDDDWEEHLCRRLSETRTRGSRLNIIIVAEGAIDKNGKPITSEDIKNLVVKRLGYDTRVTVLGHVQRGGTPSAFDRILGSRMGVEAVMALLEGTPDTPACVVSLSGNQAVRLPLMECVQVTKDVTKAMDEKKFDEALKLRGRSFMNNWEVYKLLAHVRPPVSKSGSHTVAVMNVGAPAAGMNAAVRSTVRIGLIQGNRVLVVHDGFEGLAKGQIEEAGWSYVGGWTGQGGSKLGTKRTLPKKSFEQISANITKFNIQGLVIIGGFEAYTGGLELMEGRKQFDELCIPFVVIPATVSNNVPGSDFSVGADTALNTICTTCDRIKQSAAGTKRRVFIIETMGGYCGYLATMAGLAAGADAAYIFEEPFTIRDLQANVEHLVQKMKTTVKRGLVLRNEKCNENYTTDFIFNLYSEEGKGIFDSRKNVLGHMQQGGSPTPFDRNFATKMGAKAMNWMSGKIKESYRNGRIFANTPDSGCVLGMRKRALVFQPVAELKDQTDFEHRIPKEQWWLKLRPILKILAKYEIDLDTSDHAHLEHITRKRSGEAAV
Experimental: Recombinant human PFKs were expressed in PFK-deficient Saccharomyces cerevisiae and purified using the methods described previously, adapting earlier materials and protocols. Production of PFK intended for use in ATP titration experiments used 1 mM F6P as a tetramer stabilising agent in protein purification and storage buffers. Production of PFK intended for use in F6P titration experiments used 1 mM ATP as a tetramer stabilising agent in protein purification and storage buffers. Experimental details on the purification and characterisation procedures including figures showing SDS–PAGE gels of the highly pure PFKs used in the kinetic experiments described in this work have been recently published.
Assay buffer consisted of 50 mM TEA, 100 mM KCl, 10 mM MgCl2, 1 mM Tris(2-carboxyethyl)phosphine hydrochloride (TCEP), 10% glycerol, pH 7.4. Assay mix consisted of 5 units/ml glycerol-3-phosphate dehydrogenase (G3PDH, Sigma–Aldrich G6880), 2.5 units/ml aldolase (Sigma–Aldrich A2714), 25 units/ml triosephosphate isomerase (TIM, Sigma–Aldrich T6258), and 1.25 mM NADH. ATP and F6P were obtained from Sigma–Aldrich (A2383 and F3627, respectively). For ATP titrations, 38 µl of buffer or ligand were added to a clear non-binding 96-well plate. 40 µl of assay mix containing 10 mM F6P (final concentration 4 mM) was added and the plate was incubated at 25°C for 5 min. An amount of 2 µl of PFK isoforms were added to each well from stock concentrations of 150 µg/ml and the reaction was immediately started with 20 µl of ATP at varying concentrations. For F6P titrations, 30 µl of buffer or ligand was added to a clear non-binding 96-well plate. An amount of 40 µl of assay mix containing 1.25 mM ATP (final concentration 0.5 mM) was added and the plate was incubated at 25°C for 5 min. An amount of 5 µl of PFK isoforms were added to each well from stock concentrations of 200 µg/ml and the reaction was immediately started with 20 µl F6P at varying concentrations. All ligands and substrates (including ATP) were used at pH 7.4. All metabolites were obtained from Sigma–Aldrich unless otherwise stated. […] A SpectraMax M5 Multi-Mode Microplate Reader was used to measure A340nm at 13 s intervals for 10 min. All experiments were performed in triplicate unless otherwise stated.
Time-dependent absorbance change was converted into rate of NADH oxidation (µM s^−1) or specific activity (µmol min^−1 mg protein^−1) using the Beer-Lambert law (molar extinction coefficient of NADH 6.22 mM^−1 cm^−1). The initial rate of reaction was used to avoid accumulation of ADP, which activates PFK, interfering with the determination of kinetic properties. Non-linear regression analysis was performed on substrate titration data using GraphPad Prism 7, with curves fitted using allosteric sigmoidal models, enabling determination of steady-state kinetic values.

[2] = system: PFKP; conditions: cited from earlier work
[3] = system: PFKM; conditions: cited from earlier work; for IC50 or AC50 (activator) / IC50: PFKM; for IC50: read-out: IC50 or AC50 (inhibitor); for KmF6P: PFK-M
[4] = system: PFKL; conditions: cited from earlier work
[5] = system: PFK-M (rat heart); design: method as in Moreno-Sanchez et al(10) 2012; conditions: tissue supernatant, ATP 550-700M, ref Moreno-Sanchez et al(10) 2012; cited from earlier work
[6] = system: PFK-P (HeLa cell); design: method as in Moreno-Sanchez et al(10) 2012; conditions: tissue supernatant, ATP 550-700M, ref Moreno-Sanchez et al(10) 2012; cited from earlier work
[7] = ref Sanchez-Martinez et al., 2000
[8] = ATP titration, F6P 4 mM, n = 6, mean (SD)
[9] = ref Foe and Kemp, 1985, read-out: IC50 or AC50 (inhibitor)
[10] = ref Vora 1985, read-out: IC50 or AC50 (inhibitor)
[11] = modulator 10 µM, ATP 0.5mM, N=3, mean (SD)
[12] = modulator 10 µM, F6P 4mM, N=3, mean (SD)
[13] = GTP titration, F6P 4 mM, n = 3, mean (SD)

Nc1ncnc2c1ncn2[C@@H]1O[C@H](COP(=O)(O)OP(=O)(O)O)[C@@H](O)[C@H]1O [ADP]
effect on PFK activity, in words [1]: inhibiting
change in kcat^ATP/K0.5^ATP compared with control PFK without modulator ([1]; modulator 600 µM): −52%
change in kcat^F6P/K0.5^F6P compared with control PFK without modulator ([1]; modulator 600 µM): −13%

Nc1ncnc2c1ncn2[C@@H]1O[C@H](COP(=O)(O)O)[C@@H](O)[C@H]1O [AMP]
IC50 or AC50 (activator) ([2]; ref Foe and Kemp, 1985): 75 µM
IC50 or AC50 (activator) [2, 7]: 8 µM
IC50 or AC50 (activator) ([3]; ref Foe and Kemp, 1985): 10 µM
IC50 or AC50 (activator) ([4]; ref Foe and Kemp, 1985): 10 µM
decrease in K0.5^F6P by AMP ([1]; F6P titration): near two-fold decrease
change in kcat^ATP/K0.5^ATP compared with control PFK without modulator ([1]; modulator 1200 µM): −12%
change in kcat^F6P/K0.5^F6P compared with control PFK without modulator ([1]; modulator 1200 µM): −25%

Nc1ncnc2c1ncn2[C@@H]1O[C@H](COP(=O)(O)OP(=O)(O)OP(=O)(O)O)[C@@H](O)[C@H]1O [ATP]
decrease in specificity constant (ATP inhibition) ([1]; 1 mM ATP compared with 0.5 mM ATP): 21%
increase in specific activity ([1]; ATP concentration from 0.25 mM to 0.5 mM): 23%
decrease in specific activity ([1]; ATP concentration from 0.5 mM to 1 mM): 21%
K0.5^ATP [1, 8]: 151 µM and 152 µM and 151.8 (10.0) µM
Vmax^ATP [1, 8]: 38.4 (0.9) µmoles/min.mg
kcat^ATP [1, 8]: 56.0 (1.2) s^−1
kcat^ATP/K0.5^ATP [1, 8]: 0.37 s^−1 µM^−1 and 0.37 (0.12) s^−1 µM^−1
h (ATP) ([1]; Hill value, ATP titration, F6P 4 mM, n = 6, mean (SD)): 1.03 (0.05)

O=C(O)CC(O)(CC(=O)O)C(=O)O [Citrate]
IC50 [2, 9]: 750 µM
IC50 ([2]; ref Sanchez-Martinez et al., 2000, read-out: IC50 or AC50 (inhibitor)): 400 µM
IC50 [2, 10]: 80 µM
IC50 ([3]; ref Foe and Kemp, 1985): 100 µM
IC50 ([3]; ref Vora 1985): 130 µM
IC50 [4, 9]: > 2000 µM
IC50 [4, 10]: 180 µM
IC50 ([1]; dose-response, read-out: IC50^citrate): 982 ± 109 µM
change in kcat^ATP/K0.5^ATP compared with control PFK without modulator ([1]; modulator 600 µM): +5%
change in kcat^F6P/K0.5^F6P compared with control PFK without modulator ([1]; modulator 600 µM): −36%

O=C(CO)[C@@H](O)[C@H](O)[C@H](O)COP(=O)(O)O [F6P, fructose 6-phosphate]
KmF6P [5]: 145 µM
KmF6P ([3]; partially purified tissue, ATP 1000M, ref Dunaway et al(8) 1988): 2000 µM
KmF6P ([3]; purified tissue, ATP 500M, ref Meienhofer et al(7) 1980): 1800 µM
KmF6P ([3]; recombinant (yeast), ATP 5000M, ref Sanchez-Martinez et al(9) 2000): 2000 µM
KmF6P [6]: 1100 µM
K0.5^F6P ([1]; F6P titration, ATP 0.5 mM, n = 6, mean (SD)): 147 µM and 147.1 (13.6) µM

O=P(O)(O)OC[C@H]1O[C@@](CO)(OP(=O)(O)O)[C@@H](O)[C@@H]1O [F26BP, fructose 2,6-bisphosphate]
IC50 or AC50 (activator) ([2]; ref Foe and Kemp, 1985): 4.5 µM
EC50 ([2]; ref Sanchez-Martinez et al., 2000, read-out: Kact): 2.2 µM
IC50 or AC50 (activator) ([2]; unit inferred, ref Vora 1985): 100 µM
IC50 or AC50 (activator) ([3]; ref Foe and Kemp, 1985): 0.05 µM
IC50 or AC50 (activator) ([3]; unit inferred, ref Vora 1985): 10 µM
IC50 or AC50 (activator) ([4]; ref Foe and Kemp, 1985): 0.05 µM
IC50 or AC50 (activator) ([4]; ref Van Schaftingen et al 1981): 0.04 µM
IC50 or AC50 (activator) ([4]; unit inferred, ref Vora 1985): 100 µM
effect on PFK activity, in words [1]: strongly activated
allosteric constant K0.5^ATP+F26BP/K0.5^ATP ([1]; ATP titration): 1.10
AC50 ([1]; activation, read-out: AC50^F26BP): 6.27 µM
change in kcat^ATP/K0.5^ATP compared with control PFK without modulator ([1]; modulator 10 µM): −7.4%
change in kcat^F6P/K0.5^F6P compared with control PFK without modulator ([1]; modulator 10 µM): +82%
K0.5F6P + modulator [1, 11]: 109.6 (5.3)
VmaxF6P + modulator [1, 11]: 5.81 (0.09)
K0.5ATP + modulator [1, 12]: 165.2 (9.2)
VmaxATP + modulator [1, 12]: 38.80 (0.75)

Nc1nc2c(ncn2[C@@H]2O[C@H](COP(=O)(O)OP(=O)(O)OP(=O)(O)O)[C@@H](O)[C@H]2O)c(=O)[nH]1 [GTP]
K0.5^GTP [1, 13]: 97 µM and 96.7 (8.0) µM
Vmax^GTP [1, 13]: 17.82 (0.44) µmoles/min.mg
kcat^GTP [1, 13]: 26.0 (0.6) s^−1
kcat^GTP/K0.5^GTP [1, 13]: 0.27 s^−1 µM^−1 and 0.27 (0.08) s^−1 µM^−1
h (GTP) ([1]; Hill value, GTP titration, F6P 4 mM, n = 3, mean (SD)): 1.19 (0.12)

C=C(OP(=O)(O)O)C(=O)O [PEP, phosphoenolpyruvate]
Ki [2, 7]: 2780 µM
change in kcat^ATP/K0.5^ATP compared with control PFK without modulator ([1]; modulator 1100 µM): −11%
change in kcat^F6P/K0.5^F6P compared with control PFK without modulator ([1]; modulator 1100 µM): −7%
